Data: patent publication US9717806B2, “Method for detecting cancer using ICG fluorescence method” (Osaka Prefectural Hospital Organization, priority 2008, dated 2017)

How the values were obtained:
Format in all cases: in vivo, human
hepatocellular carcinoma [1] = experiment: PDE observation of cross-sections of resected, formalin-fixed liver slices after ICG injection; details: Example 4, ICG 0.5 mg/kg intravenously 1 day before surgery, 3 mm thick slices, areas diagnosed as highly differentiated HCC
Protocol: (§1) In the examples 1 to 5 given below, the ICG (0.5 mg/kg) was injected intravenously a few days before the surgery. In other words, in the examples 1, 2, 3, 4, and 5, the intravenous ICG injection was administered, respectively, 4, 4, 8, 1, and 4 days before the surgery. […] In examples 1 to 4, the cancer was primary liver cancer, and in Example 5 it was metastatic liver cancer.
Example 4 was a case of a person. Preoperative contrast CT detected the presence of a single HCC, 25 mm in diameter, in the S5 segment of the liver. FIG. 6A is an image showing the result of contrast CT. The arrow indicates the HCC. […] FIG. 6B is a near-infrared fluorescence intensity distribution image (measured after the abdomen was opened but before the resection) from ICG in the liver. The fluorescent area indicated by the arrow at left is the main tumor area (main lesion), and the two arrows (arrowheads) on the right indicate fluorescent areas (accessory lesions), 3 mm in diameter, observed around the main tumor. Based on the above measurements, more than one fluorescent area (accessory lesions), each 3 mm in diameter, were resected in addition to the main tumor (main lesion). Further, the resected liver was fixed in formalin and made into 3 mm thick slices (FIG. 6C and FIG. 6G), and the cross-sections observed with the PDE (FIG. 6D and FIG. 6H). […]

hepatocellular carcinoma [2] = experiment: Intraoperative ICG fluorescence detection of accessory lesions with infrared camera system PDE, primary liver cancer; details: for confirmation of HCC areas by intraoperative PDE diagnosis: identification of main tumor by intraoperative ultrasonography was difficult
Protocol: (§2) Now the method of detecting an accessory cancer lesion using the accessory cancer lesion detector illustrated in FIG. 1 is described. First, the fluorescent dye indocyanine green is injected intravenously. After the lapse of a certain time (typically 1 to 10 days from the intravenous injection), when excitation light 10 of a certain wavelength (760 nm for instance) is irradiated on the target organ 20 from the excitation light source unit 2, a fluorescence image 11 in the near-infrared wavelength band is emitted by the accessory cancer lesion because of the indocyanine green. Here, the optical filter 3 allows the passage of the fluorescence image 11 while cutting off the reflected light coming from the target organ 20 that is being irradiated by the excitation light 10.
(§3) The fluorescence image 11 that passes through the optical filter 3 is captured by the CCD camera used as the imager 4, and the data of the observed image is output from the CCD camera to the controller 5. The controller 5 controls the brightness and contrast of the observed image coming from the imager 4. As a result, the observed image 15 (which includes the image of the main cancer lesion) containing the accessory cancer lesion image 16 is generated. […] Furthermore, if necessary, the observed image 15 is recorded on a recording medium in the image recorder 7.
as §1

metastatic liver cancer = experiment: Intraoperative ICG fluorescence detection of accessory lesions with infrared camera system PDE, metastatic liver cancer; details: Example 5, person; ICG 0.5 mg/kg intravenously 4 days before surgery; S4 segment of the liver; histology: adenocarcinoma, metastasis of colon cancer into the liver
Protocol: as §2
as §3, with “7. […]” for “7.”

With `CC1(C)C(/C=C/C=C/C=C/C=C2\N(CCCCS(=O)(=O)O)c3ccc4ccccc4c3C2(C)C)=[N+](CCCCS(=O)(=O)[O-])c2ccc3ccccc3c21` [ICG, indocyanine green] the “near-infrared fluorescence in cross-sections of resected liver” value (hepatocellular carcinoma [1]) was “light emission from areas where no nodule was detected macroscopically”, the “diameter of fluorescent area (accessory lesion) detected in addition to the main tumor” value (hepatocellular carcinoma [2]; Example 1, person, ICG 0.5 mg/kg intravenously 4 days before surgery, S4 segment of the liver, not detected by contrast CT, histology: highly differentiated HCC) was 5 mm and the “diameter of fluorescent area (accessory lesion)” value (hepatocellular carcinoma [2]; Example 3, person, ICG 0.5 mg/kg intravenously 8 days before surgery, S5 segment of the liver, histology: slightly less differentiated HCC than the main tumor) was 5 mm. The “confirmation of HCC areas by intraoperative PDE diagnosis” value (hepatocellular carcinoma [2]; Example 3, ICG 0.5 mg/kg intravenously 8 days before surgery) was “could confirm the HCC areas (main and accessory lesions) as fluorescent areas”, the “diameter of fluorescent areas (accessory lesions) observed around the main tumor” value (hepatocellular carcinoma [2]; Example 4, person, ICG 0.5 mg/kg intravenously 1 day before surgery, histology: highly differentiated HCC) was 3 mm and the “confirmation of HCC areas by intraoperative PDE diagnosis” value (hepatocellular carcinoma [2]; Example 4, ICG 0.5 mg/kg intravenously 1 day before surgery) was “could confirm the HCC areas (main and accessory lesions) as fluorescent areas”. The “diameter of fluorescent area (accessory lesion) detected apart from the two lesions identified before the surgery” value (metastatic liver cancer) was 5 mm.
